Experimental data reported in patent publication US11000033B2, “Ketone or oxime compound, and herbicide” (NISSAN CHEMICAL CORPORATION, priority 2014, dated 2021).

What was measured:
Format in all cases: in vivo
Digitaria ciliaris = test: Test Example 4: herbicidal effect by soil treatment (symbol F); conditions: for F: Digitaria ciliaris, herbicidal effect grade: 320 g/ha
In short: (§1)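 Seeds were sown in sterilized diluvial soil, covered with about 1.5 cm of soil, and the soil surface was sprayed with a water-diluted emulsion of the compound at a predetermined rate. Plants grew in a greenhouse at 25° C. to 30° C.; effects were scored visually 3 weeks after application.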

Lolium multiflorum Lam. = test: Test Example 5: herbicidal effect by foliage application, plastic box (symbol K); conditions: 320 g/ha, 3 weeks after application
In short: (§2)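 Greenhouse foliar test: seedlings at 14 days, grown 25° C. to 30° C. in sterilized diluvial soil; compound applied as an aqueous dilution of an emulsion; response read 3 weeks after spraying.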

Avena fatua [1] = test: Test Example 4: herbicidal effect by soil treatment (symbol I); conditions: for I: Avena fatua, herbicidal effect grade: 320 g/ha
In short: as §1

Scirpus juncoides = test: Test Example 2: herbicidal activity, application during weed generation in submerged conditions (symbol B); conditions: Table 23; application herbicide amount 320 g/ha; grade 0-5 by criteria of Test Example 1
In short: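 Weeds emerging under flooded conditions were treated with compound formulated as an emulsion and diluted with water to the intended herbicide amount, poured onto the surface of 4 cm standing water. Seeds had been co-sown in alluvial soil; plants grew at 25° C. to 30° C. and were assessed after 3 weeks.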

corn = test: Test Example 4: effect on crop by soil treatment (symbol c); conditions: for c: corn, effect grade on crop: 320 g/ha
In short: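 Soil-treatment setup: crop and weed seeds were spot-sown into sterilized diluvial soil, then buried beneath approximately 1.5 cm of it, and the boxes were housed in a 25–30° C. greenhouse.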

Abutilon theophrasti [2] = test: Test Example 5: herbicidal effect by foliage application, plastic box (symbol M); conditions: 320 g/ha, 3 weeks after application
In short: as §2

Abutilon theophrasti [3] = test: Test Example 4: herbicidal effect by soil treatment (symbol M); conditions: for M: Abutilon theophrasti, herbicidal effect grade: 320 g/ha
In short: as §1

Stellaria media = test: Test Example 4: herbicidal effect by soil treatment (symbol P); conditions: for P: Stellaria media, herbicidal effect grade: 320 g/ha
In short: as §1

beet = test: Test Example 4: effect on crop by soil treatment (symbol f); conditions: for f: beet, effect grade on crop: 320 g/ha
In short: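 Plants grew in a 25° C. to 30° C. greenhouse after spot-sowing of seeds, including beet, rapeseed, wheat and rice, into sterilized diluvial soil under roughly 1.5 cm of cover soil.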

[4] = system: directly sowed rice plant; test: Test Example 3: effect on crop by foliage application, Wagner pot (symbol b); conditions: application herbicide amount 320 g/ha
In short: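 Alluvial soil in a 1/10000-are Wagner pot was flooded to a water depth of 0.1–0.5 cm. Echinochloa crus-galli var. crus-galli, Leptochloa chinensis, Cyperus difformis and rice were sown into it and grown in a greenhouse at 25–30 °C.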

Avena fatua [5] = test: Test Example 5: herbicidal effect by foliage application, plastic box (symbol I); conditions: 320 g/ha, 3 weeks after application
In short: as §2

wheat = test: Test Example 5: effect on crop by foliage application, plastic box (symbol e); conditions: 320 g/ha, 3 weeks after application
In short: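 Crop seed is sown alongside grass and broadleaf weed species in spots in sterilized diluvial soil, then covered to a depth of about 1.5 cm. Plants grow in a greenhouse kept at 25° C. to 30° C.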

Leptochloa chinensis = test: Test Example 3: herbicidal effect by foliage application, Wagner pot (symbol D); conditions: application herbicide amount 320 g/ha
In short: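 Alluvial soil was flooded to a depth of 0.1–0.5 cm, seeded with the weeds and rice, and kept in a greenhouse at 25–30 °C. After 14 days of growth, the foliage received a small-sprayer application of emulsion diluted to the intended rate; injury was rated at 3 weeks.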

[6] = application herbicide amount 320 g/ha

| SMILES | F (Digitaria ciliaris) herbicidal effect grade (Digitaria ciliaris; [6]) | K: Lolium multiflorum Lam., herbicidal effect grade (Lolium multiflorum Lam.) | I (Avena fatua) herbicidal effect grade (Avena fatua [1]; [6]) | Herbicidal effect grade, B: Scirpus juncoides (Scirpus juncoides) | c (corn) effect on crop grade (corn; [6]) | M: Abutilon theophrasti, herbicidal effect grade (Abutilon theophrasti [2]) | M (Abutilon theophrasti) herbicidal effect grade (Abutilon theophrasti [3]; [6]) | P (Stellaria media) herbicidal effect grade (Stellaria media; [6]) | f (beet) effect on crop grade (beet; [6]) | effect on crop b (directly sowed rice plant), grade 0-5 [4] | I: Avena fatua, herbicidal effect grade (Avena fatua [5]) | e: wheat, effect on crop grade (wheat) | herbicidal effect on D (Leptochloa chinensis), grade 0-5 (Leptochloa chinensis) | F: Digitaria ciliaris, herbicidal effect grade (Digitaria ciliaris) | K: Lolium multiflorum Lam., herbicidal effect (criteria 0-5) (Lolium multiflorum Lam.) | I: Avena fatua, herbicidal effect grade (Avena fatua [1]) | c: corn, effect grade on crop (corn) | M: Abutilon theophrasti, herbicidal effect (criteria 0-5) (Abutilon theophrasti [2]) | M: Abutilon theophrasti, herbicidal effect grade (Abutilon theophrasti [3]) | P: Stellaria media, herbicidal effect grade (Stellaria media) | also measured |
| --- | --- | --- | --- | --- | --- | --- | --- | --- | --- | --- | --- | --- | --- | --- | --- | --- | --- | --- | --- | --- | --- |
| CON=C(CC1CC(O)=C(c2c(C)cc(C)cc2C)C1=O)c1ccccc1 (stereo not drawn) [1-047] | 3 (Herbicidal ratio of 40% or higher and lower than 70%) | 4 (Herbicidal ratio of 70% or higher and lower than 90%) | 0 (Herbicidal ratio of 5% or lower (almost no effect)) | 0 (Herbicidal ratio of 5% or lower (almost no effect)) | 0 (Herbicidal ratio of 5% or lower (almost no effect)) | 0 (Herbicidal ratio of 5% or lower (almost no effect)) | 0 (Herbicidal ratio of 5% or lower (almost no effect)) | 0 (Herbicidal ratio of 5% or lower (almost no effect)) | 0 (Herbicidal ratio of 5% or lower (almost no effect)) | 2 (Herbicidal ratio of 20% or higher and lower than 40%) | 0 (Herbicidal ratio of 5% or lower (almost no effect)) | 0 (Herbicidal ratio of 5% or lower (almost no effect)) | 3 (Herbicidal ratio of 40% or higher and lower than 70%) |  |  |  |  |  |  |  |  |
| CCCC(CC1CC(O)=C(c2c(C)cc(C)cc2C)C1=O)=NOC (stereo not drawn) [1-062] | 5 (Herbicidal ratio of 90% or more (almost completely withered)) | 5 (Herbicidal ratio of 90% or more (almost completely withered)) | 0 (Herbicidal ratio of 5% or lower (almost no effect)) | 0 (Herbicidal ratio of 5% or lower (almost no effect)) | 4 (Herbicidal ratio of 70% or higher and lower than 90%) | 0 (Herbicidal ratio of 5% or lower (almost no effect)) | 0 (Herbicidal ratio of 5% or lower (almost no effect)) | 0 (Herbicidal ratio of 5% or lower (almost no effect)) | 0 (Herbicidal ratio of 5% or lower (almost no effect)) | 5 (Herbicidal ratio of 90% or more (almost completely withered)) | 4 (Herbicidal ratio of 70% or higher and lower than 90%) | 0 (Herbicidal ratio of 5% or lower (almost no effect)) | 3 (Herbicidal ratio of 40% or higher and lower than 70%) |  |  |  |  |  |  |  |  |
| CON=C(CC1CC(O)=C(c2c(C)cc(Br)cc2C)C1=O)C(C)C (stereo not drawn) [9-001] |  | 5 (Herbicidal ratio of 90% or more (almost completely withered)) |  | 0 (Herbicidal ratio of 5% or lower (almost no effect)) |  | 0 (Herbicidal ratio of 5% or lower (almost no effect)) |  |  |  |  | 5 (Herbicidal ratio of 90% or more (almost completely withered)) | 0 (Herbicidal ratio of 5% or lower (almost no effect)) |  |  |  |  |  |  |  |  | Herbicidal effect grade, F: Digitaria ciliaris (Digitaria ciliaris; [6]): 4 (Herbicidal ratio of 70% or higher and lower than 90%); Herbicidal effect grade, I: Avena fatua (Avena fatua [1]; [6]): 0 (Herbicidal ratio of 5% or lower (almost no effect)); Effect on crop grade, c: corn (corn; [6]): 0 (Herbicidal ratio of 5% or lower (almost no effect)); Herbicidal effect grade, M: Abutilon theophrasti (Abutilon theophrasti [3]; [6]): 0 (Herbicidal ratio of 5% or lower (almost no effect)); Herbicidal effect grade, P: Stellaria media (Stellaria media; [6]): 0 (Herbicidal ratio of 5% or lower (almost no effect)); Effect on crop grade, f: beet (beet; [6]): 0 (Herbicidal ratio of 5% or lower (almost no effect)); b (directly sowed rice plant) effect on crop grade ([4]; Table 24): 5 (Herbicidal ratio of 90% or more (almost completely withered)); D (Leptochloa chinensis) herbicidal effect grade (Leptochloa chinensis; Table 24): 4 (Herbicidal ratio of 70% or higher and lower than 90%) |
| CON=C(C)CC1CC(OC(=O)C(C)Oc2ccc(Oc3cnc4cc(Cl)ccc4n3)cc2)=C(c2c(C)cc(C)cc2C)C1=O (stereo not drawn) [1-087] |  |  |  | 5 (Herbicidal ratio of 90% or more (almost completely withered)) |  |  |  |  |  | 5 (Herbicidal ratio of 90% or more (almost completely withered)) |  |  | 5 (Herbicidal ratio of 90% or more (almost completely withered)) | 5 (Herbicidal ratio of 90% or more (almost completely withered)) | 5 (Herbicidal ratio of 90% or more (almost completely withered)) | 3 (Herbicidal ratio of 40% or higher and lower than 70%) | 3 (Herbicidal ratio of 40% or higher and lower than 70%) | 5 (Herbicidal ratio of 90% or more (almost completely withered)) | 5 (Herbicidal ratio of 90% or more (almost completely withered)) | 0 (Herbicidal ratio of 5% or lower (almost no effect)) | f: beet, effect grade on crop (beet): 4 (Herbicidal ratio of 70% or higher and lower than 90%); I: Avena fatua, herbicidal effect (criteria 0-5) (Avena fatua [5]): 5 (Herbicidal ratio of 90% or more (almost completely withered)); e: wheat, effect on crop (criteria 0-5) (wheat): 5 (Herbicidal ratio of 90% or more (almost completely withered)) |
| C=CC(CC1CC(O)=C(c2c(C)cc(C)cc2C)C1=O)=NOC (stereo not drawn) [1-086] |  |  |  | 0 (Herbicidal ratio of 5% or lower (almost no effect)) |  |  |  |  |  | 5 (Herbicidal ratio of 90% or more (almost completely withered)) |  |  | 4 (Herbicidal ratio of 70% or higher and lower than 90%) | 2 (Herbicidal ratio of 20% or higher and lower than 40%) | 5 (Herbicidal ratio of 90% or more (almost completely withered)) | 3 (Herbicidal ratio of 40% or higher and lower than 70%) | 1 (Herbicidal ratio of 5% or higher and lower than 20%) | 0 (Herbicidal ratio of 5% or lower (almost no effect)) | 0 (Herbicidal ratio of 5% or lower (almost no effect)) | 0 (Herbicidal ratio of 5% or lower (almost no effect)) | f: beet, effect grade on crop (beet): 0 (Herbicidal ratio of 5% or lower (almost no effect)); I: Avena fatua, herbicidal effect (criteria 0-5) (Avena fatua [5]): 4 (Herbicidal ratio of 70% or higher and lower than 90%); e: wheat, effect on crop (criteria 0-5) (wheat): 0 (Herbicidal ratio of 5% or lower (almost no effect)) |
| CON=C(CC1CC(O)=C(c2c(C)cc(C)cc2C)C1=O)C(C)C (stereo not drawn) [1-048] | 5 (Herbicidal ratio of 90% or more (almost completely withered)) | 5 (Herbicidal ratio of 90% or more (almost completely withered)) | 1 (Herbicidal ratio of 5% or higher and lower than 20%) | 4 (Herbicidal ratio of 70% or higher and lower than 90%) | 3 (Herbicidal ratio of 40% or higher and lower than 70%) | 3 (Herbicidal ratio of 40% or higher and lower than 70%) | 3 (Herbicidal ratio of 40% or higher and lower than 70%) | 0 (Herbicidal ratio of 5% or lower (almost no effect)) | 0 (Herbicidal ratio of 5% or lower (almost no effect)) | 5 (Herbicidal ratio of 90% or more (almost completely withered)) | 4 (Herbicidal ratio of 70% or higher and lower than 90%) | 0 (Herbicidal ratio of 5% or lower (almost no effect)) | 4 (Herbicidal ratio of 70% or higher and lower than 90%) |  |  |  |  |  |  |  |  |
